Results as given in the NIST ThermoML archive (doi:10.1021/acs.jced.5b01053).
Numbers after ± are expanded uncertainties.

Tests used:
[1] = Molar enthalpy of transition or fusion; conditions: Crystal; DSC
[2] = Solid-liquid equilibrium temperature; conditions: 101 kPa; Crystal; DTA
[3] = 298.15 K; 101.33 kPa; Crystal; Vibrating tube method

Molar enthalpy of transition or fusion [1]: 6.26 ± 0.229 kcal/mol
Solid-liquid equilibrium temperature [2]: 431.49 ± 1 K
mass density [3]: 1289 ± 3 kg/m3
SMILES: CS(=O)(=O)c1ccc(C=O)cc1 [4-(methylsulfonyl)benzaldehyde]
